Experiments:
[1] = Efficacy test: odor of incubated underarm sweat judged by a panel of experts against control sweat; design: species or system human; conditions: 37° C, average of 18 hours and 24 hours, compared with control sweat
Protocol: Underarm sweat was collected from six volunteers in a sauna, the samples of individual sweat, stored in ice for a few hours, are at that point virtually odorless. They were subsequently mixed together and divided into 1 ml aliquots. The active agents were added to these aliquots, which were then incubated in an oven at 37° C. After these samples were incubated for 18 and 24 hours, a panel of experts evaluated the intensity of the odor compared with a control sample, which was 1 ml of sweat incubated without addition of active agent.
The results are expressed below as a percentage of change in the unpleasantness of the odor compared with this control sweat sample (average of the percentages of change at 18 hours and 24 hours).
The active agents (A) and (B) correspond to zinc salicylate trihydrate from Bernardy Chimie and to the active agent (C) containing Triclosan.

Corynebacterium xerosis = experiment: Bactericidal activity of a composition on microorganisms involved in underarm odor; format: cell-based; conditions: summary in text for the active agent
Protocol: The test described herein allows a quantitative determination of the bactericidal activity of a composition on microorganisms under optimum growth conditions, i.e., microorganisms of the Corynebacterium xerosis type (Institut Pasteur Collection No. 5216) grown on soybean tryptocasein agar on a slope.
On the day before the test, 32 g of soybean tryptocasein broth were placed in a pill bottle and incubated at 35° C. On the day of the test, 4 g of the test composition were added and the mixture was homogenized using a Vortex mixer.
A product-free growth control was prepared under the same conditions in order to check that the microorganisms were under favorable growth conditions throughout the duration of the test.
For the preparation of the inoculum, five days before the start of the test, the two bacterial strains were subcultured on a suitable medium. Incubation was performed for 5 days at 35° C. On the day of the test, the slope was washed with about 9 ml of diluent: the suspension obtained has a titre of […] (counting was performed). […]
The colonies were counted on the dishes containing more than 20 and less than 200 colonies. […]
The bactericidal activity of each of the formulations 2, 3 and 4 with respect to the strain Corynebacterium xerosis was measured and compared with a formulation without active agent.

Oc1cc(Cl)ccc1Oc1ccc(Cl)cc1Cl [(C), 2,4,4′-trichloro-2′-hydroxydiphenyl ether, reference compound]
% change in the unpleasantness of odor ([1]; 0.8 mg AM/ml of sweat): −55%

Zinc salicylate
antibacterial activity on the Corynebacterium xerosis strains (Corynebacterium xerosis): low (1 Log of reduction: low)

zinc salicylate trihydrate [(A)]
% change in the unpleasantness of odor ([1]; 1 mg AM/ml of sweat): −45% | % change in the unpleasantness of odor ([1]; 5 mg AM/ml of sweat): −48%

— patent publication US20050019288A1, “Alcohol-based aerosol deodorant composition comprising at lease one zinc salicylate or a derivative thereof” (priority 2003, published 2005)
